Values after ≈ are worked out from the molar mass of the structure shown. One block for each molecule: values may come before it.
How the values were obtained:
[1] = target: Vascular endothelial growth factor receptor 2 and tyrosine-protein kinase TIE-2 (KDR and TIE2) (Homo sapiens) (UniProt P35968+Q02763); experiment: Selectivity for Tie2 over KDR; assay type: protein assay
[2] = target: Vascular endothelial growth factor receptor 2 (Homo sapiens, UniProt P35968)
Description: Inhibition of KDR by HTRF assay

Angiopoietin-1 receptor [3] = target: T1, Angiopoietin-1 receptor (Homo sapiens, UniProt Q02763); experiment: Inhibition of Tie2 by HTRF assay
T1 sequence (Q02763 whole entry): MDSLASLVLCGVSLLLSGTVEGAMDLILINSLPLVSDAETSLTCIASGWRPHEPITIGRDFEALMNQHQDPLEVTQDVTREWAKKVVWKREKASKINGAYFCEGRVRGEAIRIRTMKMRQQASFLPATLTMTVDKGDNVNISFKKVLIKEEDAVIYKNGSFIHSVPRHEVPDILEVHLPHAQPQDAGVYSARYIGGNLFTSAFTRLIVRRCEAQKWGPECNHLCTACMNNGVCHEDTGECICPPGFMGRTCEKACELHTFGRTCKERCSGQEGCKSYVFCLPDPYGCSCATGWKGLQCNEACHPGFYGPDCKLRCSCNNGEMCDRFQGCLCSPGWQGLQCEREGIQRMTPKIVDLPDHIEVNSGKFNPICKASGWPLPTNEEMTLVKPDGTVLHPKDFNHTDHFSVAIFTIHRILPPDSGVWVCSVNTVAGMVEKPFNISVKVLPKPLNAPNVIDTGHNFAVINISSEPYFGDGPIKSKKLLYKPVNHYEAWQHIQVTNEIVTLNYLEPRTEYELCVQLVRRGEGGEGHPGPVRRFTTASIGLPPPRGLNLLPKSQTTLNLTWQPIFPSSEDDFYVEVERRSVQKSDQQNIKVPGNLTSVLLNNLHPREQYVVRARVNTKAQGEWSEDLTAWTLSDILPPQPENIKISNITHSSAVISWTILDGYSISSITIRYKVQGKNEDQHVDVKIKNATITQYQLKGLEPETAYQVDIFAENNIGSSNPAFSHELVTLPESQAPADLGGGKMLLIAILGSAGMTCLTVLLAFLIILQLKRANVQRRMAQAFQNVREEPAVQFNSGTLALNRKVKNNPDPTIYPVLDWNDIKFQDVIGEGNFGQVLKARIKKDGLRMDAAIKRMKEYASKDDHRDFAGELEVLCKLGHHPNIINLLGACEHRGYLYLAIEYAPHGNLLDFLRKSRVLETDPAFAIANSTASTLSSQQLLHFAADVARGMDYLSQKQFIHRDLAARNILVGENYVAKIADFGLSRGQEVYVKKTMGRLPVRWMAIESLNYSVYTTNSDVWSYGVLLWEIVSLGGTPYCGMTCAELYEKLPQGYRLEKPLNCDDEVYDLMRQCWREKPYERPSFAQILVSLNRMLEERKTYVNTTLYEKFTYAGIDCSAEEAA

[4] = Clearance in iv dosed rat; assay type: ADME, organism-based; conditions: in vivo
Angiopoietin-1 receptor [5] = target: T1, Angiopoietin-1 receptor; experiment: Inhibition of angiopoietin-1-stimulated Tie2 phosphorylation in EA.hy926 cells; assay type: functional, cell-based
[6] = Mean residence time in rat; assay type: ADME, organism-based; conditions: in vivo
[7] = AUC (0-infinity) in Sprague-Dawley rat at 10 mg/kg, po; assay type: ADME, organism-based; set-up: time infinity, dose 10 mg/kg, route oral; conditions: plasma
[8] = Plasma concentration in CD1 NU/NU mouse at 100 mg/kg after 3 hrs; assay type: ADME, organism-based; set-up: dose 100 mg/kg
[9] = target: RAC-alpha serine/threonine-protein kinase (Homo sapiens, UniProt P31749); experiment: Inhibition of PKBalpha
[10] = Volume of distribution in Sprague-Dawley rat at 1 mg/kg, iv; assay type: ADME, organism-based; set-up: dose 1 mg/kg, route intravenous; conditions: in vivo, read-out: Vss
[11] = target: Mitogen-activated protein kinase 10 (Homo sapiens, UniProt P53779); experiment: inhibition of JNK3
[12] = target: Platelet-derived growth factor receptor beta (Homo sapiens, UniProt P09619); experiment: Inhibition of PDGFR
[13] = Dissociation constant, pKa of the compound; assay type: physicochemical
[14] = Plasma protein binding in mouse; assay type: ADME, cell-free; conditions: read-out: PPB (converted)
[15] = target: Proto-oncogene tyrosine-protein kinase Src (Homo sapiens, UniProt P12931); experiment: inhibition of Src
[16] = Solubility in phosphate buffer at pH 7.0; assay type: physicochemical
[17] = target: Tyrosine-protein kinase JAK3 (Homo sapiens, UniProt P52333); experiment: Inhibition of Jak3
[18] = target: Tyrosine-protein kinase Fgr (Homo sapiens, UniProt P09769); experiment: Inhibition of Fgr
[19] = target: Angiopoietin-1 receptor (Mus musculus) (UniProt Q02858); experiment: Inhibition of angiopoietin-1-induced Tie2 phosphorylation in CD1 NU/NU mouse at 100 mg/kg after 3 hrs; assay type: functional, organism-based; set-up: dose 100 mg/kg
Sequence of Angiopoietin-1 receptor (Mus musculus) (Q02858 whole entry): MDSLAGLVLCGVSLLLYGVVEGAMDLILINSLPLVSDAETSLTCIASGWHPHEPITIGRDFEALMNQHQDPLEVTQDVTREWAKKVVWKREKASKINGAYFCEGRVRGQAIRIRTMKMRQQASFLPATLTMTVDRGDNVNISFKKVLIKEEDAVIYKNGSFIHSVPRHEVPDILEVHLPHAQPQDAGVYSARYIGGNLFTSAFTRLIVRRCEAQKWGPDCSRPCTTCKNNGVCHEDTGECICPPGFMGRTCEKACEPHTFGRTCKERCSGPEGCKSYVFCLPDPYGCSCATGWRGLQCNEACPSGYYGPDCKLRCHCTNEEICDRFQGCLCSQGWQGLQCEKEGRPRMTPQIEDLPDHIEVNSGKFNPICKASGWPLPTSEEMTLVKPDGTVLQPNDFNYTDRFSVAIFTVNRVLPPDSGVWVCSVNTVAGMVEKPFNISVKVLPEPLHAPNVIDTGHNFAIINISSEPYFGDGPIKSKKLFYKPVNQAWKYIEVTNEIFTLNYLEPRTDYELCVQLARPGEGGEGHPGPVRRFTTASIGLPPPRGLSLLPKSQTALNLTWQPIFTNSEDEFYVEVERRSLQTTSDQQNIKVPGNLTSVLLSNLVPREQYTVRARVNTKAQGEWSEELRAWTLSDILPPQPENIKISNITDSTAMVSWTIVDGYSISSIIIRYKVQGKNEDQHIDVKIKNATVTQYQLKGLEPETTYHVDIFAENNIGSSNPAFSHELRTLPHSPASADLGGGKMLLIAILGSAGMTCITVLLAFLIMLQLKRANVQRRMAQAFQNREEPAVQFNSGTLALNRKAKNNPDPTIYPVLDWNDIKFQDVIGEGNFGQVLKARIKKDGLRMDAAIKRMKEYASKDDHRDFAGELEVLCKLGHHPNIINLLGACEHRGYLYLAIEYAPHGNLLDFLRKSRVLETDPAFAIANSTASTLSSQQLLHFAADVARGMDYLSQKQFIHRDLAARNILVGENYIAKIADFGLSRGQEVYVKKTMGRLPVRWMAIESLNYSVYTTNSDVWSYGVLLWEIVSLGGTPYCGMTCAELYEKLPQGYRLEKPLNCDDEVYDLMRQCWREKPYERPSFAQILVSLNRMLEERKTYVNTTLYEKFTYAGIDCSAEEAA

[20] = target: Tyrosine-protein kinase ABL1 (Homo sapiens, UniProt P00519); experiment: Inhibition of Abl
[21] = Solubility in 0.01N HCl; assay type: physicochemical
Aurora kinase A = Aurora kinase A (Homo sapiens, UniProt O14965); experiment: Inhibition of AurA
Ephrin type-B receptor 4 = Ephrin type-B receptor 4 (Homo sapiens, UniProt P54760); experiment: Inhibition of EPHB4
[22] = Solubility in simulated intestinal fluid at pH 6.8; assay type: physicochemical
[23] = target: Tyrosine-protein kinase Lck (Homo sapiens, UniProt P06239); experiment: Inhibition of Lck
[24] = Plasma concentration in CD1 NU/NU mouse at 100 mg/kg after 12 hrs; assay type: ADME, organism-based; set-up: dose 100 mg/kg
[25] = target: Tyrosine-protein kinase Lyn (Homo sapiens, UniProt P07948); experiment: Inhibition of Lyn
[26] = target: Tyrosine-protein kinase ZAP-70 (Homo sapiens, UniProt P43403); experiment: Inhibition of ZAP70
[27] = Clearance in Sprague-Dawley rat at 1 mg/kg, iv; assay type: ADME, organism-based; set-up: dose 1 mg/kg, route intravenous; conditions: in vivo
[28] = target: Mitogen-activated protein kinase 14 (Homo sapiens, UniProt Q16539); experiment: Inhibition of p38alpha
[29] = target: Angiopoietin-1 receptor (Mus musculus) (UniProt Q02858); experiment: Inhibition of angiopoietin-1-induced Tie2 phosphorylation in CD1 NU/NU mouse at 100 mg/kg after 8 hrs; assay type: functional, organism-based; set-up: dose 100 mg/kg
[30] = Cmax in Sprague-Dawley rat at 10 mg/kg, po; assay type: ADME, organism-based; set-up: dose 10 mg/kg, route oral; conditions: in vivo
[31] = Tmax in Sprague-Dawley rat at 10 mg/kg, po; assay type: ADME, organism-based; set-up: dose 10 mg/kg, route oral; conditions: in vivo
[32] = Half life in Sprague-Dawley rat at 1 mg/kg, iv; assay type: ADME, organism-based; set-up: dose 1 mg/kg, route intravenous; conditions: in vivo
[33] = target: Tyrosine-protein kinase SYK (Homo sapiens, UniProt P43405); experiment: Inhibition of SYK
[34] = Plasma concentration in CD1 NU/NU mouse at 100 mg/kg after 8 hrs; assay type: ADME, organism-based; set-up: dose 100 mg/kg
[35] = target: Tyrosine-protein kinase CSK (Homo sapiens, UniProt P41240); experiment: Inhibition of CSK
[36] = target: Tyrosine-protein kinase ITK/TSK (Homo sapiens, UniProt Q08881); experiment: Inhibition of Itk
[37] = target: Proto-oncogene tyrosine-protein kinase receptor Ret (Homo sapiens, UniProt P07949); experiment: Inhibition of RET
Sequence of Proto-oncogene tyrosine-protein kinase receptor Ret (P07949 whole entry): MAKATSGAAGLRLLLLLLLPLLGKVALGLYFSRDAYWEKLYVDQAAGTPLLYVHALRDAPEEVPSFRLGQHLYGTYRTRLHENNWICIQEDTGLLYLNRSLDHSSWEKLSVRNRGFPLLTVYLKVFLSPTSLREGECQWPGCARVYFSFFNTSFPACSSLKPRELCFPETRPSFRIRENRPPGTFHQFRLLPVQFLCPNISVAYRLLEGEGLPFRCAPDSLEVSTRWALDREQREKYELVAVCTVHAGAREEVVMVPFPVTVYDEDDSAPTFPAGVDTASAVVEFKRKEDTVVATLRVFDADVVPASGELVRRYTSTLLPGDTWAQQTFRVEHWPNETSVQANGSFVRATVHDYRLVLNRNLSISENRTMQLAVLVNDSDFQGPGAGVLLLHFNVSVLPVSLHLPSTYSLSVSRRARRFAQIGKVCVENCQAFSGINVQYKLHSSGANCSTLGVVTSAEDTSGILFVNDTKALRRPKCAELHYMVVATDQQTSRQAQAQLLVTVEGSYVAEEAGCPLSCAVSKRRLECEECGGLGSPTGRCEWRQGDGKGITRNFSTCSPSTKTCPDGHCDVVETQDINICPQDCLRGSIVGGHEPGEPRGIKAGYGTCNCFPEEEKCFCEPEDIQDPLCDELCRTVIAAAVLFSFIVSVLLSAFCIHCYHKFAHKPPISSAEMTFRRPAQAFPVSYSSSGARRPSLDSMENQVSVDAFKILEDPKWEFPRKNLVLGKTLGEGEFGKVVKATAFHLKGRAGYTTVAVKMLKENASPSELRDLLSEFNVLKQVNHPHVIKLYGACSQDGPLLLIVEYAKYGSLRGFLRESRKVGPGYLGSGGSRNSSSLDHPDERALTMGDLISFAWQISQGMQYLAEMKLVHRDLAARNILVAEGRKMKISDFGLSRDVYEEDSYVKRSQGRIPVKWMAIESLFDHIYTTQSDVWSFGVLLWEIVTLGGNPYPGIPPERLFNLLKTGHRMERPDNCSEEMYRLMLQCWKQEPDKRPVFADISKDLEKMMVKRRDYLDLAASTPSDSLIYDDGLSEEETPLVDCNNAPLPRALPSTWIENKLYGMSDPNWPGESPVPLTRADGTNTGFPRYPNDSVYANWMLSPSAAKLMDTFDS

[38] = Plasma protein binding in rat; assay type: ADME, cell-free; conditions: read-out: PPB (converted)
[39] = target: Macrophage colony-stimulating factor 1 receptor (Homo sapiens, UniProt P07333); experiment: Inhibition of c-fms
[40] = target: High affinity nerve growth factor receptor (Homo sapiens, UniProt P04629); experiment: Inhibition of TrkA
[41] = target: Cyclin-dependent kinase 5 (Homo sapiens, UniProt Q00535); experiment: Inhibition of CDK5
Sequence of Cyclin-dependent kinase 5 (Q00535 whole entry): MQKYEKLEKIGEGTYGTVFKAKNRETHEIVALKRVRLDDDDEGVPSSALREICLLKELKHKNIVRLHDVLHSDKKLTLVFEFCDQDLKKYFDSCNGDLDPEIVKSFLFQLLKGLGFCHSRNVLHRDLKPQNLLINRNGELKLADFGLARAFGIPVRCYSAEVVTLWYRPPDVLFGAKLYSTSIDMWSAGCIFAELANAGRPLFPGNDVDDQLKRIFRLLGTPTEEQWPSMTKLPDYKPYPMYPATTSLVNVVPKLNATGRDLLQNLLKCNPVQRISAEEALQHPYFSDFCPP

[42] = target: Insulin-like growth factor 1 receptor (Homo sapiens, UniProt P08069); experiment: Inhibition of IGFR1
[43] = Oral bioavailability in Sprague-Dawley rat at 10 mg/kg, po; assay type: ADME, organism-based; conditions: in vivo

Sequence of Vascular endothelial growth factor receptor 2 (P35968 whole entry): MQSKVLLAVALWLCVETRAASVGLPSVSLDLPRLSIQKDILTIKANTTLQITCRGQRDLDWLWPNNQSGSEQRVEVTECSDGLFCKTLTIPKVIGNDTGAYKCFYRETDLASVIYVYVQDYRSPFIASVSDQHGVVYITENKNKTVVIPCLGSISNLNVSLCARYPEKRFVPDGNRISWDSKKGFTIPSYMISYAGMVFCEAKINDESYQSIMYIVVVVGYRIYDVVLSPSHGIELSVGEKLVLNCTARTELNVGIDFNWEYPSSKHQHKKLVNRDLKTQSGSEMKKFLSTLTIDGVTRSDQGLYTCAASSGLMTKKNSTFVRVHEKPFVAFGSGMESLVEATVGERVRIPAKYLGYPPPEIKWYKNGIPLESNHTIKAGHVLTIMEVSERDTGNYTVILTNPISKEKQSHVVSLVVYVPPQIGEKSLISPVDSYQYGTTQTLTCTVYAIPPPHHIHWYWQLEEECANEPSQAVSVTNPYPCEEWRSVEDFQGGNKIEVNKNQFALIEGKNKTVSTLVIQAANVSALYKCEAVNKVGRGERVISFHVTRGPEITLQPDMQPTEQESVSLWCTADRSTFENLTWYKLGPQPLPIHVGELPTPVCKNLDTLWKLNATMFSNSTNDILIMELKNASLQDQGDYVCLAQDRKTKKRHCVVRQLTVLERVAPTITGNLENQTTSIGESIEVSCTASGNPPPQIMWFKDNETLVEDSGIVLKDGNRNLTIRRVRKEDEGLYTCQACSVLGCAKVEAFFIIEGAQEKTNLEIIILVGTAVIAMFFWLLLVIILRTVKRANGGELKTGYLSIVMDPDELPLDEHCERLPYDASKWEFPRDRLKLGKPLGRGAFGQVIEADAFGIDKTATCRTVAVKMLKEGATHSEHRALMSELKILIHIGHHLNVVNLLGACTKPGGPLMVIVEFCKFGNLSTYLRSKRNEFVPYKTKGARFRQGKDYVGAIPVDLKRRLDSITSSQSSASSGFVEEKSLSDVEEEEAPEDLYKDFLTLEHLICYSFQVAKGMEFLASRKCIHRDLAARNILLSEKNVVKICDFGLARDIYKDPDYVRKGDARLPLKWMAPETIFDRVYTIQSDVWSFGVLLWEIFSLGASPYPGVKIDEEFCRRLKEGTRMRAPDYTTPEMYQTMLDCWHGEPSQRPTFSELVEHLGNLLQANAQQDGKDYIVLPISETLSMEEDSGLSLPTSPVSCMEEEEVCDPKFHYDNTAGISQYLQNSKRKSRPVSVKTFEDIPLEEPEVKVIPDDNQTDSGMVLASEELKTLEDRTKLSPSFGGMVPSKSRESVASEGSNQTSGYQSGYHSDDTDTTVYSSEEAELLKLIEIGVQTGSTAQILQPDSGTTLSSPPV
Sequence of Vascular endothelial growth factor receptor 2 and tyrosine-protein kinase TIE-2 (KDR and TIE2) (Homo sapiens) (P35968 whole entry, looked up): as the sequence (P35968 whole entry) above
Sequence of Vascular endothelial growth factor receptor 2 and tyrosine-protein kinase TIE-2 (KDR and TIE2) (Homo sapiens) (Q02763 whole entry, looked up): as the sequence (Q02763 whole entry) above

SMILES: CNc1nccc(-c2cccnc2Oc2cc(C(=O)Nc3cc(C(F)(F)F)ccc3N3CCCCC3)ccc2F)n1
IC50 [2]: 2 µM
clearance [4]: 25.6 mL/min/kg

SMILES: CNc1ncnc(-c2cccnc2Oc2ccc(F)c(C(=O)Nc3cc(C(F)(F)F)ccc3N3CCCCC3)c2)n1
IC50 [2]: > 25 µM

SMILES: CNc1ncnc(-c2cccnc2Oc2cc(C(=O)Nc3cc(C4CCCCC4)ccc3OC)ccc2C)n1
IC50 (Angiopoietin-1 receptor [5]): 0.061 µM
IC50 [2]: > 25 µM
IC50 (Angiopoietin-1 receptor [3]): 0.022 µM
MRT [6]: 0.47 h
clearance [4]: 12.8 mL/min/kg

SMILES: CNc1ncnc(-c2cccnc2Oc2ccc(F)c(C(=O)Nc3cc(C(F)(F)F)ccc3N(C)CCCN(C)C)c2)n1
AUC(0-inf) [7]: 2640 ng·h/mL
concentration at 3 h [8]: 3.97 µM
IC50 [9]: 100 µM
Vd [10]: 2.56 L/kg
IC50 [11]: 40 µM
IC50 [12]: 1.94 µM
pKa [13]: 9.5
fraction unbound [14]: 0.02
IC50 [15]: 5.75 µM
IC50 (Angiopoietin-1 receptor [5]): 0.062 µM
solubility [16]: 44 µg/mL (≈ 73.5 µM)
IC50 [17]: 25 µM
IC50 [18]: 8.3 µM
inhibition [19]: 94%
IC50 [20]: 1.28 µM
IC50 [2]: 7.8 µM
solubility [21]: 1320 µg/mL (≈ 2210 µM)
IC50 (Aurora kinase A): 25 µM
IC50 (Ephrin type-B receptor 4): 8.3 µM
IC50 (Angiopoietin-1 receptor [3]): 0.03 µM
solubility [22]: 340 µg/mL (≈ 568 µM)
IC50 [23]: 1.1 µM
concentration at 12 h [24]: 1.59 µM
IC50 [25]: 4.9 µM
IC50 [26]: 25 µM
clearance [27]: 21.7 mL/min/kg
IC50 [28]: 3.7 µM
inhibition [29]: 25%
Cmax [30]: 520 ng/mL
Tmax [31]: 2 h
half-life [32]: 1.6 h
IC50 [33]: 25 µM
concentration at 8 h [34]: 3.03 µM
clearance [4]: 21.7 mL/min/kg
IC50 [35]: 25 µM
IC50 [36]: 25 µM
IC50 [37]: 8.3 µM
fraction unbound [38]: 0.07
IC50 [39]: 25 µM
IC50 [40]: 8.3 µM
IC50 [41]: 100 µM
IC50 [42]: 0.927 µM
bioavailability [43]: 31%

SMILES: O=C(Nc1ccc(Oc2ccccc2)cc1)c1cccnc1NCc1ccncc1
IC50 (Angiopoietin-1 receptor [3]): ≥ 25 µM

SMILES: CNc1ncnc(-c2cccnc2Oc2cc(C(=O)Nc3cccc(C(F)(F)F)c3)ccc2C)n1
IC50 (Angiopoietin-1 receptor [5]): 0.038 µM
IC50 [2]: 0.097 µM
IC50 (Angiopoietin-1 receptor [3]): 0.01 µM

SMILES: CNc1nccc(-c2cccnc2Oc2cccc(C(=O)Nc3cc(C(F)(F)F)ccc3N3CCCCC3)c2)n1
IC50 (Angiopoietin-1 receptor [5]): 0.368 µM
IC50 [2]: > 8 µM
IC50 (Angiopoietin-1 receptor [3]): 0.099 µM
clearance [4]: 54 mL/min/kg

The next lines start with the values.

Selectivity ratio [1]: > 100
IC50 [2]: > 25 µM
IC50 (Angiopoietin-1 receptor [3]): 0.181 µM
SMILES: Cc1ccc(C(=O)Nc2cc(C(F)(F)F)ccc2N2CCCCC2)cc1Nc1ncccc1-c1ccncn1

IC50 [2]: 0.31 µM
SMILES: CNc1nccc(-c2cccnc2Oc2cc(C(=O)Nc3cc(C(F)(F)F)ccc3N3CCOCC3)ccc2C)n1

IC50 [2]: 0.059 µM
SMILES: Cc1ccc(C(=O)Nc2cccc(C(F)(F)F)c2)cc1Oc1ncccc1-c1ccncn1

IC50 [2]: 0.1 µM
SMILES: COc1ccc(C(F)(F)F)cc1NC(=O)c1ccc(C)c(Oc2ncccc2-c2ccncn2)c1

IC50 [2]: > 25 µM
clearance [4]: 98.3 mL/min/kg
SMILES: CNc1cc(-c2cccnc2Oc2cc(C(=O)Nc3cc(C4CCCCC4)ccc3OC)ccc2C)ccn1

IC50 [2]: 0.038 µM
IC50 (Angiopoietin-1 receptor [3]): 0.085 µM
SMILES: COc1cc(Nc2ncnc(-c3cccnc3Nc3cccc(C(=O)Nc4ccc(Oc5ccccc5)cc4)c3)n2)cc(OC)c1OC

Selectivity ratio [1]: > 500
IC50 (Angiopoietin-1 receptor [5]): 0.244 µM
IC50 [2]: > 25 µM
IC50 (Angiopoietin-1 receptor [3]): 0.04 µM
clearance [4]: 5.67 mL/min/kg
bioavailability [43]: 0.3%
SMILES: CNc1nccc(-c2cccnc2Oc2ccc(F)c(C(=O)Nc3cc(C(F)(F)F)ccc3N3CCCCC3)c2)n1

IC50 [2]: 0.177 µM
solubility [21]: 1 µg/mL (≈ 2.23 µM)
IC50 (Angiopoietin-1 receptor [3]): 0.504 µM
SMILES: Cc1ccc(C(=O)Nc2ccc(C(F)(F)F)cc2)cc1Nc1ncccc1-c1ccncn1

IC50 [2]: 0.07 µM
clearance [4]: 58.2 mL/min/kg
SMILES: CNc1nccc(-c2cccnc2Oc2cc(C(=O)Nc3cc(C4CCCCC4)ccc3OC)ccc2C)n1
